Assay results published in PMC11097166, “Imidazole-Derived Alkyl and Aryl Ethers: Synthesis, Characterization, In Vitro Anticancer and Antioxidant Activities, Carbonic Anhydrase I–II Inhibition Properties, and In Silico Studies” (ACS Omega, 2024).

Legend:
[1] = tested on: C6 rat glial tumor cell line; test: MTT cell viability assay on C6; assay type: cell-based; settings: 24 h incubation
Description: (§1) 96-well plates were used for seeding cells. […] All compounds were run in three repetitions.

[2] = tested on: HT29 colon cancer cell line; test: MTT cell viability assay on HT29; assay type: cell-based, human; settings: 24 h incubation
Description: as §1

[3] = tested on: MCF7 human breast adenocarcinoma cell line; test: MTT cell viability assay on MCF7; assay type: cell-based; settings: 24 h incubation
Description: as §1

FRAP antioxidant assay = settings: trolox standard curve
Experimental: The FRAP method was used to determine the antioxidant power of compounds. This method, which determines the reducing power of compounds, was developed by Benzie and Strain.[48] Fe(III)–TPTZ complex is formed as a result of the reaction of Fe(III) with tripyridyltriazine (TPTZ), and this complex is reduced to the Fe(II)–TPTZ complex with the antioxidant in the environment. The color of this complex is dark blue and gives the maximum absorbance at 593 nm.[48] Incubation is performed for up to 30 min to complete the reaction, and the correct absorbance values were read. The FRAP values of the samples were calculated as “μmol trolox equiv/g sample” with the help of the standard curve obtained using methanol–trolox standard solutions (0; 0.2; 0.4; 0.6; 0.8; and 1.0 μmol/mL) which were used as the positive control.[49] […]

hCA I = hCA I (Homo sapiens, UniProt P00915); test: CA esterase activity method, hCA I; assay type: biochemical; settings: Table S3; note: key: +: active; -: not effect
Description: (§2) The method used to spectrophotometrically detect the antiepileptic, antiglaucoma, and […] effects of the obtained compounds in vitro is the esterase activity method. This method relies on the esterase activity of CA for the hydrolysis of p-nitrophenyl acetate as a substrate, which is a part of the reaction mechanism involving p-nitrophenol or p-nitrophenolate.

hCA II = hCA II (Homo sapiens, UniProt P00918); test: CA esterase activity method, hCA II; assay type: biochemical; settings: Table S3; note: key: +: active; -: not effect
Description: as §2

[4] = tested on: L929 mouse fibroblast cell line
Experimental: (§3) Human breast adenocarcinoma cell line (MCF7), rat glial tumor cell line (C6), healthy mouse fibroblast cell line (L929), and colon cancer (HT29) cell line were purchased from ATCC (American type culture collection) and studied.
(§4) The cytotoxic effects of all compounds by MTT analysis on L929, HT29, MCF7, and C6 cell lines were investigated. 96-well plates were used for seeding cells. Approximately 1 × 10^4 cells were seeded in each well. Cells were allowed to adhere for 24 h, and then the compounds were applied at different concentrations. All compounds were run in three repetitions. Wells with a maximum of 100 μM compounds were incubated for 24 h. Three wells without compounds treated with only DMSO (with total volume of % 0.5) were used as negative controls, and cisplatin was used as a positive control. […] After the MTT interaction, the FRAP wells were emptied, and DMSO solution was placed in them. The formazan crystals formed were dissolved with this solution, and the number of viable cells in each well was determined by color change.

[5] = tested on: L929 mouse fibroblast cell line; test: MTT cell viability assay on L929; settings: read-out: IC50 L929; 24 h incubation, MTT
Experimental: as §3, §4

Chain of hCA I (P00915 whole entry): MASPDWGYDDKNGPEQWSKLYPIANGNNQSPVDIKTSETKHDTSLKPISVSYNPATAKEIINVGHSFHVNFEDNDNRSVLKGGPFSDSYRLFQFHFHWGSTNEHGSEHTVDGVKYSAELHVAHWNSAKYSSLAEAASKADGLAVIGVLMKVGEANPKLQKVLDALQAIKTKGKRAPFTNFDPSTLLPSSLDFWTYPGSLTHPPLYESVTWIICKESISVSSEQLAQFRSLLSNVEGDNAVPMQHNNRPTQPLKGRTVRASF

- IC50 [1]: 43.8 ± 5.83 µM
- IC50 [2]: 88.4 ± 15.7 µM
- IC50 [3]: 101 ± 14.5 µM
- Effect on hCA I isoenzyme activity (hCA I): +
- Effect on hCA II isoenzyme activity (hCA II): +
Substance: 2-(1H-Imidazol-1-yl)-1-(4-methoxyphenyl)ethenol [Compound 4c]
- FRAP (FRAP antioxidant assay): 0.29 ± 0.05 μmol trolox equiv/g
- viability on healthy cell line at maximum dose [4]: at least 50%
- IC50 [5]: 194 ± 12.2 µM
